Laboratory results taken from patent US9808470B2, “Estrogenic components for use in the treatment of neurological disorders” (UNIVERSITE DE LIEGE, priority 2012, dated 2017).

How the values were obtained:
Type in all cases: in vivo
[1] = Ex.2 neonatal HIE rat model, pre-treatment: brain weight; conditions: E4 5 mg/kg ip day 4-7 before HI; day 14; vs vehicle
Protocol: Ischemia was produced by surgery encompassing left common carotid artery double ligation and cut; hypoxia was produced by the inhalation of 11%-8% of oxygen balanced by nitrogen at decreased concentration of oxygen for 20 minutes, followed by inhalation of 8% oxygen and 92% nitrogen at constant concentration for 35 minutes.
(§1) Animals were then perfused transcardially with 0.9% saline solution at 4° C., and then with 4% paraformaldehyde in a 0.1-mol/L phosphate-buffered saline solution (pH 7.4) at 4° C. The brains were quickly isolated, weighed and immersed in the same fixative solution at 4° C. for 24 hours, dehydrated with a graded series of ethanol and xylene, and embedded in paraffin.
After delivery, newborn rat pups were assigned to one of the following 4 groups: Sham group, Vehicle group, E4 5 mg/kg/per day group and E4 50 mg/kg/per day group. From day 4 to day 7 inclusive, rat pups were injected intraperitoneally either vehicle (Vehicle group) or E4 (5 mg/kg or 50 mg/kg in accordance to the group assignment) or not injected at all (Sham group). […]

[2] = Ex.4 therapeutic HIE rat model: brain weight; conditions: PND14
Protocol: as §1
To study the therapeutic effect of estetrol, newborn rat pups were assigned to one of the following 6 groups at postnatal day 7: sham group (n=29), vehicle group (n=20), 1 mg/kg E4 group (n=16), 5 mg/kg E4 group (n=19), 10 mg/kg day E4 (n=17) and 50 mg/kg day E4 group (n=15). At postnatal day 7 animals were anesthetized with isoflurane (induction, 3.0%; maintenance, 1.5%), and the rat pups from vehicle and E4 groups passed through surgery encompassing left common carotid artery double ligation and cut. After surgery, the pups were returned to their dams and allowed to recover for 1 hour. The pups were then placed in a humidified hypoxic in vivo cabinet (CoyLab). Hypoxia was produced by the inhalation of 11%-8% of oxygen balanced by nitrogen at decreased concentration of oxygen for 20 minutes, followed by inhalation of 8% oxygen and 92% nitrogen at constant concentration for 35 minutes. All the manipulations were performed at 37° C.
Upon retrieval from the hypoxia chamber the rat pups were injected intraperitoneally either by vehicle (vehicle group) or by E4 (1 mg/kg, 5 mg/kg, 10 mg/kg or 50 mg/kg) in accordance to the group assignment. The animals from the sham group went through similar procedures but proceeded neither left common carotid artery ligation and cut followed by hypoxia nor vehicle or estetrol administration. Rat pups recovered with their dams until being sacrificed at postnatal day 14.

[3] = system: vascular endothelial growth factor (VEGF); assay: Ex.8 therapeutic HIE rat model: VEGF staining; conditions: 5 mg/kg/day E4, hippocampus (same region)
Protocol: To study the therapeutic effect of estetrol, newborn rat pups were assigned to one of the following 14 groups at postnatal day 7 (FIG. 23(B)): Sham group (n=12), Vehicle (n=15), 5 mg/kg/day E4 (n=11), 10 mg/kg/day E4 (n=11), 5 mg/kg/day E4+1.6 mg/kg/day PROG (n=11), 10 mg/kg/day E4+1.6 mg/kg/day PROG (n=11), 5 mg/kg/day E4+16 mg/kg/day PROG (n=11), 10 mg/kg/day E4+16 mg/kg/day PROG (n=13), 5 mg/kg/day E4+136 ng//kg/day E2 (n=11), 10 mg/kg/day E4+136 ng/kg/day E2 (n=11), 5 mg/kg/day E4+1.6 mg/kg/day PROG+136 ng/kg/day E2 (n=12), 10 mg/kg/day E4+1.6 mg/kg/day PROG+136 ng/kg/day E2 (n=11), 5 mg/kg/day E4+16 mg/kg/day PROG+136 ng/kg/day E2 (n=11), 10 mg/kg/day E4+16 mg/kg/day PROG+136 ng/kg/day (n=12) groups. […] After surgery, the pups were returned to their dams and allowed to recover for 1 hour. The pups were then placed in a humidified hypoxic in vivo cabinet (CoyLab). […]
The sections were heated in 10 mmol/L citrate buffer (pH 6.0) at 100° C. for 10 minutes. […] Samples were analyzed with the aid of a microscope (Olympus Vanox AHBT3, Olympus), and the ImageJ software 15 (NIH). The percentage of positively stained cells was quantified as a sum of positively stained either DCX or VEGF cells divided by the total number of DAPI positive cells expressed in percentage.

## C[C@]12CC[C@@H]3c4ccc(O)cc4CC[C@H]3[C@@H]1[C@@H](O)[C@@H](O)[C@@H]2O [E4, 1,3,5(10)-estratrien-3,15α,16α,17β-tetrol]
[1]
  brain weight: significantly higher
[2]; 1 mg/kg E4 single ip dose after HI
  brain weight: 1.099 ± 0.037 g
[2]; 5 mg/kg E4 single ip dose after HI
  brain weight: 1.06 ± 0.035 g
[2]; 10 mg/kg E4 single ip dose after HI
  brain weight: 1.12 ± 0.33 g
[2]; 50 mg/kg E4 single ip dose after HI
  brain weight: 1.163 ± 0.025 g
[3]
  VEGF positively stained cell percentage: 54.05±3.51%
